# Assays:
# [1] = system: CD8+ T cells from HLA-A*0201 breast cancer patients; experiment: 3H-thymidine proliferation of T cells from breast cancer patients; assay type: cell-based, human; settings: 23 HLA-A*0201 breast cancer patients, DCs pulsed with 10 μg/mL peptide + IL-2, 5 days, vs no-peptide stimulated T cells
# Method: CD8^+ T cells from the patients were incubated with irradiated autologous DCs pulsed with the various MUC1 peptides (10 μg/mL) plus IL-2 for 5 days and proliferation was assessed by measuring the ^3H-thymidine uptake. T cells from ~38% of the breast cancer patients responded to the selected MUC1 peptides (Figure 6).
# Figure 6 T cells from ~38% of the HLA-A2^+ breast cancer patients regardless of their stage, ER/PR and HER2 status responded to the selected MUC1 peptides. 1 × 10^5 T cells were incubated with irradiated […] DCs pulsed with the various MUC1 peptides (10 μg/mL) + IL-2 for 5 days in complete media. Proliferation was assessed by measuring the ^3H-thymidine uptake and is reported as fold increase in counts per minute. The dotted line indicates the two-fold increase in proliferation.
# [2] = system: MCF-7 cells (MUC1+, HLA-A*0201+); experiment: 51Cr-release assay, peptide-induced CTLs from normal donors; assay type: cell-based, human
# Method: PBLs underwent two rounds of stimulation and sorted CD8^+ T cells were subjected to a ^51Cr-release assay.
# PBMCs (2 × 10^6 cells/mL of AIM V medium) were transferred to a 24-well plate and incubated for 2 h at 37 °C. Non-adherent lymphocytes were washed off with PBS and the adherent cells were cultured in X-VIVO medium containing GM-CSF (1000 U/mL) and IL-4 (1000 U/mL) to generate DCs. On day four, the DCs were washed with PBS and pulsed for 2 h with the specific MUC1 peptide (50 μg/mL) (Table 1) and PADRE peptide (10 μg/mL) along with recombinant β2-microglobulin (3 μg/mL) in freshly prepared X-VIVO medium (1 mL per well) containing GM-CSF (1000 U/mL) and IL-4 (1000 U/mL). Lipopolysaccharide (LPS) at 1 μg/mL and tumor necrosis factor-α (TNFα) at 10 ng/mL were added to the peptide-pulsed DCs for 48 h to mature the DCs. […] For the first stimulation (R1 stimulation), PBMCs (2 × 10^6 cells/mL of T cell medium per well) were transferred to the irradiated and washed peptide-pulsed mature DCs at a stimulator to responder ratio of 1:10 in the presence of IL-7 (10 ng/mL). […] After three days, IL-2 at 1 ng/mL was added and refreshed every three days. On day 12 post R1 stimulation, CD8^+ T cells were sorted using CD8 microbeads (Miltenyi, Sunnyvale, CA, USA) as per the manufacturer’s protocol. […] Five to seven days later, T cells were analyzed for cytolytic activity by ^51Cr-release assay and interferon gamma production by ELISPOT.
# The lytic activity of the in vitro stimulated peptide-specific CTLs was measured by a standard six-hour ^51Cr-release assay. […] After incubation, 30 μL of supernatant was transferred onto LUMA plates (Perkin Elmer, Waltham, MA, USA) and radioactive ^51Cr release was measured in a Topcount Micro-scintillation Counter (Packard Biosciences, Shelton, CT, USA). Percent specific lysis was calculated according to the following formula: Percent specific lysis = (experimental cpms − spontaneous cpms)/(complete cpms − spontaneous cpms) × 100. […]
# [3] = system: CD8+ T cells (IFNγ production); experiment: IFNγ ELISpot of peptide-induced CD8+ T cells; assay type: cell-based, human; settings: normal donors, two rounds of stimulation, 24 h on ELISpot plate
# Method: Figure 5 Production of IFNγ by CD8^+ T cells was induced in response to MUC1 peptides. Following two rounds of stimulation, CD8^+ cells were maintained for 24 h on an ELISpot plate. Spot numbers were determined using computer assisted video image analysis by Zellnet Consulting Inc. There were no significance differences compared to the negative peptide (p > 0.05).
# IFNγ ELISpot plates from Mabtech (Stockholm, Sweden) were used to detect IFNγ producing MUC1-specific CTLs. The assay was performed using the capture IFNγ antibody as recommended by the manufacturer. Day five post R2-stimulation, the CTLs were washed three times and 1 × 10^5 cells were transferred to the washed and blocked IFNγ ELISpot plates and incubated at 37 °C in a 5% CO2 incubator for 24 h. After incubation the plates were washed with PBS, incubated with alkaline phosphatase-conjugated IFNγ antibody at room temperature for two hours and then spots were detected with BCIP/NBT substrate. Spot numbers were determined using computer assisted video image analysis by Zellnet Consulting Inc. (Fort Lee, NJ, USA).
# HLA-A*0201 molecules = HLA-A*0201 molecules (Homo sapiens, UniProt P04439, D140Y/D185E/D98H/E176V/E277Q/G131W/G231S/I119V/I121R/I166T/I218V/L300P/L318F/N151K/N90K/P208A/P217A/Q86G/Q94H/R138H/R169H/T345S); experiment: Competitive peptide inhibition assay (F1-peptide displacement on T2 cells); settings: discussion; '8- to 30-fold, respectively'
# [4] = system: Autologous DCs pulsed with MUC1 peptides; experiment: 51Cr-release assay against peptide-pulsed autologous DCs; assay type: cell-based, human; settings: four normal donors, DCs pulsed with 50 μg/mL peptide and PADRE 10 μg/mL, E:T 100:1
# Method: Autologous DCs pulsed with various MUC1 peptides (50 μg/mL) and PADRE peptide (10 μg/mL) were used as targets. Effector:target ratio was 100:1 and spontaneous release was less than 15% of complete lysis. * p < 0.05 (Student’s t-test) compared to the negative peptide.
# The lytic activity of the in vitro stimulated peptide-specific CTLs was measured by a standard six-hour ^51Cr-release assay. The target cells used were MCF-7 breast cancer cell lines which express MUC1^+ and HLA-A*0201, and MDA-MB-231 cells, which are MUC1 negative and express HLA-A*0201. All tumor targets were treated with IFNγ one-day prior to use to up-regulate class I surface expression. Autologous DCs pulsed with the recall peptides, other modified peptides and the native peptide were also used as targets to evaluate cross-reactivity of MUC1-specific CTLs. The targets were labeled with Na^51CrO4 (0.1 mCi/mL) for 2 h, washed 3 times with PBS and re-suspended in T cell medium to a concentration of 2 × 10^4 cells/mL. […] After incubation, 30 μL of supernatant was transferred onto LUMA plates (Perkin Elmer, Waltham, MA, USA) and radioactive ^51Cr release was measured in a Topcount Micro-scintillation Counter (Packard Biosciences, Shelton, CT, USA). Percent specific lysis was calculated according to the following formula: Percent specific lysis = (experimental cpms − spontaneous cpms)/(complete cpms − spontaneous cpms) × 100. […]
substance,measurement,setting,value
"SLAPT(Tn)VHNV [P4, glycosylated anchor-optimized MUC1 peptide]",Patients responding with >2-fold increase in proliferation,[1],10/23
same,Lysis of MCF-7 cells by CTLs elicited with the peptide,"[2]; 8 normal post-menopausal HLA-A*0201 women, E:T 100:1, 6 h, p = 0.008 vs negative control P11",significant lysis
same,Percent of donors that will respond (lower limit of 95% CI),[2]; based on considering 30% cell kill a response,at least 35%
same,% of Donors with at Least 30% Cell Kill,"[2]; normal donors (n = 8), MCF-7 targets, E:T 100:1, 30% cell kill considered a response",75%
same,IFNγ production by CD8+ T cells generated to the peptide,[3],showed production of IFNγ
same,Fold higher affinity than the known M1.1 and M1.2 MUC1 peptides,HLA-A*0201 molecules,8 fold
same,Lytic reactivity of CTLs against DCs pulsed with immunizing or native P1 peptide,[4],reacted against the native P1:STAPPVHNV
